Assay results reported in US10745428B2, “Antiviral phosphodiamide prodrugs of tenofovir” (Merck Sharp & Dohme Corp., priority 2015, dated 2020).
Like-named read-outs stand apart in the source and are kept apart here.

System: HIV-1 (H9/IIIB strain)
Experiment: Multiple round HIV-1 infection assay (Viking assay), HIV-1 replication in MT4-GFP cells
Format: cell-based
Settings: MT4-GFP cells infected with HIV-1 H9/IIIB
Experimental: The antiviral activity of the tenofovir prodrugs of the Examples herein was assessed in an assay that measures the rate of replication of HIV in cell culture, termed the Viking assay (VIral KINetics in Green cells) and performed as follows. HIV-1 replication was monitored using MT4-gag-GFP clone D3 (hereafter designated MT4-GFP; GFP is green fluorescent protein), which are MT-4 cells modified to harbor a GFP reporter gene, the expression of which is dependent on the HIV-1 expressed proteins tat and rev; see Wang Y-J et al., 2010J Virological Methods 165:230-237. Productive infection of an MT4-GFP cell with HIV-1 results in GFP expression approximately 24 h post-infection. MT4-GFP cells were maintained at 37° C./5% CO2/90% relative humidity in RPMI 1640 supplemented with 10% fetal bovine serum, 100 U/ml penicillin/streptomycin, and 400 μg/ml G418 to maintain the reporter gene. For infections, MT4-GFP cells were placed in the same medium lacking G418 and infected overnight with HIV-1 (H9/IIIB strain) virus at an approximate multiplicity of infection of 0.01 in the same incubation conditions. Cells were then washed and re-suspended in either RPMI 1640 supplemented with 10% or 50% normal human serum (NHS) at 1.6×10^5 cells/mL (10% NHS or 50% NHS, respectively). Compound plates were prepared by dispensing compounds dissolved in DMSO into wells of 384 well poly-D-lysine-coated plates (0.2 μl/well) using an ECHO acoustic dispenser. Each compound was tested in a 10-point serial 3-fold dilution (typical final concentrations: 8.4 μM-0.42 nM). Controls included no inhibitor (DMSO only) and a combination of three antiviral agents (efavirenz, indinavir, and an integrase strand transfer inhibitor at final concentrations of 4 μM each). Cells were added (50 μL/well) to compound plates and the infected cells were maintained at 37′C/5% CO2/90% relative humidity.
Infected cells were quantified at two time points, ˜48 h and ˜72 h post-infection, by counting the number of green cells in each well using an Acumen eX3 scanner. The increase in the number of green cells over ˜24 h period gives the reproductive ratio, R0, which is typically 5-15 and has been shown experimentally to be in logarithmic phase (data not shown). R0 is calculated for each well, and IC50s determined by non-linear 4-parameter curve fitting.

[1] = 10% normal human serum, read-out: Viking, IC50 (10% NHS)
[2] = 50% normal human serum, read-out: Viking, IC50 (50% NHS)
[3] = Human immunodeficiency virus 1, IIIB, 10% normal human serum, read-out: Viking, IC50 (10% NHS)
[4] = Human immunodeficiency virus 1, IIIB, 50% normal human serum, read-out: Viking, IC50 (50% NHS)

| SMILES | IC50 [1] | IC50 [2] | IC50 [3] | IC50 [4] |
| --- | --- | --- | --- | --- |
| CCCCCCOC(=O)[C@@H](C)NP(=O)(CO[C@H](C)Cn1cnc2c(N)ncnc21)NC(C)(C)C(=O)OC(C)C (single isomer, unassigned) [Example 7A] | 10.4 nM | 57.8 nM |  |  |
| CCCCCOC(=O)C(C)(C)NP(=O)(CO[C@H](C)Cn1cnc2c(N)ncnc21)N[C@H](C)C(=O)OC1CCC1 (single isomer, unassigned) [Example 19A] | 6.9 nM | 27.4 nM |  |  |
| CC(C)OC(=O)[C@@H](C)NP(=O)(CO[C@H](C)Cn1cnc2c(N)ncnc21)NC(C)(C)C(=O)OC(C)C (single isomer, unassigned) [Example 4B] | 74.6 nM | 122 nM |  |  |
| C[C@H](Cn1cnc2c(N)ncnc21)OCP(=O)(N[C@H](C)C(=O)OC1CCCC1)NC(C)(C)C(=O)OC1CCCCC1 (single isomer, unassigned) [Example 27A] | 12.9 nM | 64.5 nM |  |  |
| CCCCCCOC(=O)C(C)(C)NP(=O)(CO[C@H](C)Cn1cnc2c(N)ncnc21)N[C@H](C)C(=O)OC1CCC1 (single isomer, unassigned) [Example 21A] | 4.4 nM | 14.9 nM |  |  |
| CCCCCCOC(=O)C(C)(C)NP(=O)(CO[C@H](C)Cn1cnc2c(N)ncnc21)N[C@H](C)C(=O)OCCCC (single isomer, unassigned) [Example 11A] | 9.9 nM | 99 nM |  |  |
| CC(C)COC(=O)[C@@H](C)NP(=O)(CO[C@H](C)Cn1cnc2c(N)ncnc21)NC(C)(C)C(=O)OC(C)C (single isomer, unassigned) [Example 5A] | 33.1 nM | 129 nM |  |  |
| CC(C)OC(=O)C(C)(C)NP(=O)(CO[C@H](C)Cn1cnc2c(N)ncnc21)N[C@H](C)C(=O)OC1CCCCC1 (single isomer, unassigned) [Example 6B] | 1.9 nM | 5.6 nM |  |  |
| CCCCCCOC(=O)C(C)(C)NP(=O)(CO[C@H](C)Cn1cnc2c(N)ncnc21)N[C@H](C)C(=O)OC1CCC1 (single isomer, unassigned) [Example 21B] | 0.7 nM | 2.8 nM |  |  |
| CCCCCOC(=O)[C@H]1CCCN1P(=O)(CO[C@H](C)Cn1cnc2c(N)ncnc21)NC(C)(C)C(=O)OCCCCC (single isomer, unassigned) [Example 26A] |  | 50.3 nM | 5.3 nM |  |
| CCCCCCOC(=O)C(C)(C)NP(=O)(CO[C@H](C)Cn1cnc2c(N)ncnc21)N[C@H](C)C(=O)OC1CCCC1 (single isomer, unassigned) [Example 14A] | 9.8 nM | 67.2 nM |  |  |
| CCCCCCOC(=O)C(C)(C)NP(=O)(CO[C@H](C)Cn1cnc2c(N)ncnc21)N[C@H](C)C(=O)OCC(C)C (single isomer, unassigned) [Example 10A] | 6.6 nM | 72.5 nM |  |  |
| CCCCOC(=O)[C@@H](C)NP(=O)(CO[C@H](C)Cn1cnc2c(N)ncnc21)NC(C)(C)C(=O)OC(C)C (single isomer, unassigned) [Example 3A] | 20.7 nM | 71.4 nM |  |  |
| C[C@H](Cn1cnc2c(N)ncnc21)OCP(=O)(N[C@H](C)C(=O)OC1CCCC1)NC(C)(C)C(=O)OC1CCC1 (single isomer, unassigned) [Example 28A] |  | 16.1 nM | 5.4 nM |  |
| CCCCCOC(=O)[C@@H](C)NP(=O)(CO[C@H](C)Cn1cnc2c(N)ncnc21)NC(C)(C)C(=O)OC(C)C (single isomer, unassigned) [Example 8B] | 3.9 nM | 20.7 nM |  |  |
| CC(C)OC(=O)C(C)(C)NP(=O)(CO[C@H](C)Cn1cnc2c(N)ncnc21)N[C@H](C)C(=O)OC1CCC1 (single isomer, unassigned) [Example 18A] |  |  | 20 nM | 34.2 nM |
| CCCCCCOC(=O)C(C)(C)NP(=O)(CO[C@H](C)Cn1cnc2c(N)ncnc21)N[C@H](C)C(=O)OCCCC (single isomer, unassigned) [Example 11B] | 0.8 nM | 2.6 nM |  |  |
| CCCCCOC(=O)[C@@H](C)NP(=O)(CO[C@H](C)Cn1cnc2c(N)ncnc21)NC(C)(C)C(=O)OC(C)C (single isomer, unassigned) [Example 8A] | 12.6 nM |  |  | 41.4 nM |
| CCCCOC(=O)C(C)(C)NP(=O)(CO[C@H](C)Cn1cnc2c(N)ncnc21)N[C@H](C)C(=O)OC1CCC1 (single isomer, unassigned) [Example 23A] |  | 35.5 nM | 6.7 nM |  |
| CCCCCCOC(=O)C(C)(C)NP(=O)(CO[C@H](C)Cn1cnc2c(N)ncnc21)N[C@H](C)C(=O)OCCCCC (single isomer, unassigned) [Example 12B] | 0.5 nM | 3.3 nM |  |  |
| CC(C)COC(=O)[C@@H](C)NP(=O)(CO[C@H](C)Cn1cnc2c(N)ncnc21)NC(C)(C)C(=O)OC(C)C (single isomer, unassigned) [Example 5B] | 2.5 nM | 6.4 nM |  |  |
| CCCCCOC(=O)[C@@H](C)NP(=O)(CO[C@H](C)Cn1cnc2c(N)ncnc21)NC(C)(C)C(=O)OCCCCC (single isomer, unassigned) [Example 16A] | 10 nM | 60.1 nM |  |  |
| CC(C)OC(=O)[C@@H](C)NP(=O)(CO[C@H](C)Cn1cnc2c(N)ncnc21)NC(C)(C)C(=O)OC(C)C (single isomer, unassigned) [Example 4A] | 418 nM | 1400 nM |  |  |
| CCCCCCOC(=O)C(C)(C)NP(=O)(CO[C@H](C)Cn1cnc2c(N)ncnc21)N[C@H](C)C(=O)OCCCCC (single isomer, unassigned) [Example 12A] | 7.3 nM | 54.4 nM |  |  |
| CC(C)OC(=O)C(C)(C)NP(=O)(CO[C@H](C)Cn1cnc2c(N)ncnc21)N[C@H](C)C(=O)OC1CCCC1 (single isomer, unassigned) [Example 1A] | 19.3 nM | 44.3 nM |  |  |
| CCCCCCOC(=O)[C@@H](C)NP(=O)(CO[C@H](C)Cn1cnc2c(N)ncnc21)NC(C)(C)C(=O)OC(C)C (single isomer, unassigned) [Example 7B] | 4.7 nM | 28.8 nM |  |  |
| CC(C)OC(=O)C(C)(C)NP(=O)(CO[C@H](C)Cn1cnc2c(N)ncnc21)N[C@H](C)C(=O)OC1CCCCC1 (single isomer, unassigned) [Example 6A] | 101 nM | 500 nM |  |  |
| CCCCCCOC(=O)C(C)(C)NP(=O)(CO[C@H](C)Cn1cnc2c(N)ncnc21)N[C@H](C)C(=O)OC1CCCCC1 (single isomer, unassigned) [Example 15A] | 7.7 nM | 25.9 nM |  |  |
